The record followed here is paper PMC6253949, “The Inhibitory Action of Kohamaic Acid A Derivatives on Mammalian DNA Polymerase β” (Molecules, 2008).

The assay addresses T1, Human DNA polymerase δ (Homo sapiens, UniProt P28340).
T1 construct: Human pols δ and ε were purified by the nuclear fractionation of human peripheral blood cancer cells (Molt-4); endogenous in cells; host or cells: Molt-4
T1 sequence (P28340 1-1107): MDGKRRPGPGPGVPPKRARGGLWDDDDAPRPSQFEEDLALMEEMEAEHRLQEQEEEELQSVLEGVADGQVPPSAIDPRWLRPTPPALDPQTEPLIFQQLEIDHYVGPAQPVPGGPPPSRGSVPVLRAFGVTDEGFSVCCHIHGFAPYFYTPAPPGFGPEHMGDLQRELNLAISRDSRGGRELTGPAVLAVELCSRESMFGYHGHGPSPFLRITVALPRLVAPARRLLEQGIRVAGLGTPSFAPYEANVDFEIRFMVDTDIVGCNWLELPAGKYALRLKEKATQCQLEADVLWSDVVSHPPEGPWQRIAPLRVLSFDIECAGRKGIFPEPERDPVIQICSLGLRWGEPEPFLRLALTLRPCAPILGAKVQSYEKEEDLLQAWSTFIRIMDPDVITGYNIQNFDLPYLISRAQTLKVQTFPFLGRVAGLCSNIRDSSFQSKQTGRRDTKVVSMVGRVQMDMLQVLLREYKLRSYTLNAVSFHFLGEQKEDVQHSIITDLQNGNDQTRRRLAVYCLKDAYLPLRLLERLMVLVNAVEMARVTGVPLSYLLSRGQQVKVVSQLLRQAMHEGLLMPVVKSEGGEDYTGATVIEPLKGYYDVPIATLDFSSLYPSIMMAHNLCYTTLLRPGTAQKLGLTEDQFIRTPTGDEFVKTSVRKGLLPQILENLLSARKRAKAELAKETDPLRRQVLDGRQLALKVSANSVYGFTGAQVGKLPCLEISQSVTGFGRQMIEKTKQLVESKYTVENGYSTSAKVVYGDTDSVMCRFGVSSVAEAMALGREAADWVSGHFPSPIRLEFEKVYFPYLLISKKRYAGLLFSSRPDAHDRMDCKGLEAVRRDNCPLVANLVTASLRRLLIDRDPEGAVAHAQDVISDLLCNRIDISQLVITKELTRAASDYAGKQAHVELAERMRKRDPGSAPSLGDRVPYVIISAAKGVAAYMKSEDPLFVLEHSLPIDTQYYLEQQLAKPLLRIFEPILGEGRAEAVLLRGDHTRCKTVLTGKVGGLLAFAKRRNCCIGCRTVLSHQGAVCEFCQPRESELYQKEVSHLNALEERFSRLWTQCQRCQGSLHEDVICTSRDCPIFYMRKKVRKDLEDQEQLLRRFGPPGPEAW
The assay can be described thus: DNA polymerase assay, human pol δ. The assay is classed as biochemical. The source says:
Pol α was purified from calf thymus by immuno-affinity column chromatography as described by Tamai et al.. Recombinant rat pol β was purified from E. coli JMpβ5 as described by Date et al.. The human pol γ catalytic gene was cloned into pFastBac. Histidine-tagged enzyme was expressed using the BAC-TO-BAC HT Baculovirus Expression System according to the supplier's manual (LIFE TECHNOLOGIES, MD, USA) and purified using ProBoundresin (Invitrogen Japan, Tokyo, Japan). Human pols δ and ε were purified by the nuclear fractionation of human peripheral blood cancer cells (Molt-4) using the second subunit of pols δ and ε-conjugated affinity column chromatography, respectively. Recombinant human pols η and ι tagged with His6 at their C-terminal were expressed in SF9 insect cells using the baculovirus expression system, and were purified as described previously. A truncated form of pol κ (i.e., hDINB1DC) with 6 x His-tags attached at the C-terminal was overproduced using the BAC-to-BAC Baculovirus Expression System kit (GIBCO BRL, MD, USA) and purified as described previously. […]
For pols, poly(dA)/oligo(dT)12-18 (A/T = 2/1) and dTTP were used as the DNA template-primer and nucleotide (i.e., dNTP) substrate, respectively. […] Activity without the inhibitor was considered 100%, and the remaining activity at each concentration of the inhibitor was determined relative to this value. […]

As for `CC1=CC[C@H]2C(C)(C)CCC[C@]2(C)[C@H]1CCCCCCCCCCCCCCCCC(=O)O` (relative stereo) [compound 11, (1S*,4aS*,8aS*)-17-(1,4,4a,5,6,7,8,8a-octahydro-2,5,5,8a-tetramethylnaphthalen-1-yl)heptadecanoic acid], the IC50 (as a rule, the point on the concentration scale where inhibition reaches its midpoint) was 4.89 ± 0.24 µM.
